Here are results for two compounds from article PMC8488497, “In silico and in vitro analysis of an Aspergillus niger chitin deacetylase to decipher its subsite sugar preferences” (The Journal of Biological Chemistry, 2021).

The assay addresses T1, AngCDA (Aspergillus niger, UniProt A2QZC8).
T1 construct: gene An12g04480; signal peptide (residues 1-19) removed; N- and C-terminal Strep-tag II; E. coli Rosetta 2 (DE3); monomer; the crystal used a pelB / C-terminal Strep-tag II construct
T1 sequence (A2QZC8 20-239): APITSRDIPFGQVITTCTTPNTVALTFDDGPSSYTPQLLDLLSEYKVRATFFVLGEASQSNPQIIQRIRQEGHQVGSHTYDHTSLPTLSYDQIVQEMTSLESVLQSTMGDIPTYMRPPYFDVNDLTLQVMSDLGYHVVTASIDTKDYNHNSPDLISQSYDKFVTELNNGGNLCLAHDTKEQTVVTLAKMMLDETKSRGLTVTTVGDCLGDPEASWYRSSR
The assay is described as follows: HILIC-ESI-MS product quantification and sequencing. The conditions noted are these: deacetylation; 0.5 mM substrate, 50 mM TEA pH 7, 37 °C. The format is biochemical.

Consider `CC(=O)N[C@H]1[C@H](O[C@H]2[C@H](O)[C@@H](NC(C)=O)[C@H](O[C@H]3[C@H](O)[C@@H](NC(C)=O)C(O)O[C@@H]3CO)O[C@@H]2CO)O[C@H](CO)[C@@H](O[C@@H]2O[C@H](CO)[C@@H](O[C@@H]3O[C@H](CO)[C@@H](O)[C@H](O)[C@H]3NC(C)=O)[C@H](O)[C@H]2NC(C)=O)[C@@H]1O` (some centres unmarked) [A5], for which the “HILIC-ESI-MS product quantification and sequencing” value is reported as “mode of action of AngCDA deacetylating chitopentaose (A5)”.

Turning to `CC(=O)N[C@H]1[C@H](O[C@H]2[C@H](O)[C@@H](NC(C)=O)C(O)O[C@@H]2CO)O[C@H](CO)[C@@H](O[C@@H]2O[C@H](CO)[C@@H](O[C@@H]3O[C@H](CO)[C@@H](O)[C@H](O)[C@H]3NC(C)=O)[C@H](O)[C@H]2NC(C)=O)[C@@H]1O` (some centres unmarked) [A4, chitotetraose], the “HILIC-ESI-MS product quantification and sequencing” value is reported as “mode of action of AngCDA deacetylating chitotetraose (A4)”.
